Measured values from patent US20100035926A1, “PYRAZOLE DERIVATIVES AS NON-STEROIDAL GLUCOCORTICOID RECEPTOR LIGANDS” (priority 2006, published 2010).
Read-outs that look alike come from different tables or passages of the source.

What was measured:
Progesterone Receptor = target: T1, Progesterone Receptor (Homo sapiens, UniProt P06401); assay: Assay for Progesterone Receptor Agonist Activity (CV-1 cells, PRb-BacMam, MMTV-BacMam); assay type: cell-based; details: at least once in this assay, read-out: progesterone receptor agonist pEC50 (converted)
T1 construct: expressed in transfected cells; host or cells: CV-1 cells transduced with PRb-BacMam and MMTV-BacMam
T1 sequence (P06401 1-933): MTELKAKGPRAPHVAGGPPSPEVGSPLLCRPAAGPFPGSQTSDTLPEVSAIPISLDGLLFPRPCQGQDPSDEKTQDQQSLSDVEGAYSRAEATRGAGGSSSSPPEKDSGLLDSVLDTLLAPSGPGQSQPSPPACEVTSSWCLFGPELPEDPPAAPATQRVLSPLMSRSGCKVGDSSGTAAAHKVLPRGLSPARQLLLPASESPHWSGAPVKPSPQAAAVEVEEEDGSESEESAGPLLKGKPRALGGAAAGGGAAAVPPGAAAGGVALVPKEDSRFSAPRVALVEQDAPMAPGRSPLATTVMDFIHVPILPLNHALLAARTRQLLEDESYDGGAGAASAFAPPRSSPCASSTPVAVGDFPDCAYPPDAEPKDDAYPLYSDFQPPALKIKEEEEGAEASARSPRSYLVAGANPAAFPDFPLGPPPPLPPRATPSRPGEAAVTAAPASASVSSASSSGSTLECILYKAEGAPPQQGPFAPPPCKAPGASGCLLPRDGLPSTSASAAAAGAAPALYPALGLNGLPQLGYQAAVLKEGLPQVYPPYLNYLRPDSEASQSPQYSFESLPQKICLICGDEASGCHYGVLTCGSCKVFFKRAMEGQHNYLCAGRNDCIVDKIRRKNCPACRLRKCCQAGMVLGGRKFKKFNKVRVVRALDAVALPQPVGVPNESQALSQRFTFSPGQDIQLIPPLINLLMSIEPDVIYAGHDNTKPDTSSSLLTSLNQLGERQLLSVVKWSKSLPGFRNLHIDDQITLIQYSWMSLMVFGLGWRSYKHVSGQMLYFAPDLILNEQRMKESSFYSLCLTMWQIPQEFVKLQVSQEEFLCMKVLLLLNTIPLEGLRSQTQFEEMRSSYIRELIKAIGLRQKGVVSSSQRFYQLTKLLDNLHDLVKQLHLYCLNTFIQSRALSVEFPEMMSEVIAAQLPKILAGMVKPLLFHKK
Protocol: A T225 flask of CV-1 cells at a density of 80% confluency was washed with PBS, detached from the flask using 0.25% trypsin and counted using a Sysmex KX-21N. Cells were diluted in DMEM containing 10% Hyclone, 2 mM […] and 1% Pen/Strep at 140 cells/μl and transduced with 10% PRb-BacMam and 10% MMTV-BacMam. […] of suspension cells were dispensed to each well of white Nunc 384-well plates, containing compounds at the required concentration. After 24 hr 10 μl of Steadylite were added to each well of the plates. Plates were incubated in the dark for 10 min before reading them on a Viewlux reader. Dose response curves were constructed from which pEC50 values were estimated.

GR [1] = target: T2, GR (Homo sapiens, UniProt P04150); assay: GR Functional Assay - NFκB Assay (A549 SPAP cells, TNFα stimulated); assay type: cell-based; details: for Emax: agonists, read-out: average maximum asymptote in the NFkB assay
T2 construct: endogenous in cells; host or cells: A549 (human lung carcinoma, ECACC No. 86012804), stably transfected with reporter plasmids only
T2 sequence (P04150 1-777): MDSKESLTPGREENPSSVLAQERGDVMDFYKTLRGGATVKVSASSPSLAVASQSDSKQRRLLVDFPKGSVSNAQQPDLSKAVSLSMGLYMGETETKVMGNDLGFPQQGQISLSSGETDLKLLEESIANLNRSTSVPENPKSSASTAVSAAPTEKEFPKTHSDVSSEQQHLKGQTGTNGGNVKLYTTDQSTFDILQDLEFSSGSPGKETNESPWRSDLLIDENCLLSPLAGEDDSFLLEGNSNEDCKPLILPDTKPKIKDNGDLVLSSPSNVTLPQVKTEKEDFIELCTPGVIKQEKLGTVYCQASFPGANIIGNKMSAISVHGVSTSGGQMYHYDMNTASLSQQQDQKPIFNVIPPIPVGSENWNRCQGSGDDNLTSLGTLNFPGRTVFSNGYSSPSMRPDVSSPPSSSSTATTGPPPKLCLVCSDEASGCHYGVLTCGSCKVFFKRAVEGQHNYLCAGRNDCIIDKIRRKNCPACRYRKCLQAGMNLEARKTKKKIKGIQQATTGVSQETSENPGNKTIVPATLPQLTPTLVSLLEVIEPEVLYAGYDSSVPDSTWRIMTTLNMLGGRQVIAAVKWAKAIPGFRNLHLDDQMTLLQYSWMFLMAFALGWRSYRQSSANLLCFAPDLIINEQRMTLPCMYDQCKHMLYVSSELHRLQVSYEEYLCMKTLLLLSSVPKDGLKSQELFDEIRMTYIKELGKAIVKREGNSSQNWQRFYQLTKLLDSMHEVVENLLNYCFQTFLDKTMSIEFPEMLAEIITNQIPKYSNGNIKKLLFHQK
How it was run: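 Stably transfected A549 SPAP cells at 0.16×10^6/ml in DMEM with 10% FCS were added to compound and stimulated with TNFα to drive NFκB-dependent SPAP expression. After 1 hr equilibration at room temperature, SPAP was read colorimetrically with pNPP in diethanolamine buffer, pH 9.8.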

glucocorticoid receptor = target: T3, glucocorticoid receptor (Homo sapiens, UniProt P04150); assay: Glucocorticoid Receptor Binding Assay (fluorescence polarisation, displacement of Alexa 555 labelled dexamethasone derivative); details: at least once in this assay; read-out: glucocorticoid binding pIC50 (converted)
T3 construct: a partially purified full length glucocorticoid receptor
T3 sequence (P04150 1-777): T2 sequence (P04150 1-777)
How it was run: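 Partially purified full-length GR incubated with test compound and fluorescent dexamethasone plus GR-stabilising buffer components, 2 hr at room temperature in the dark. Binding scored as displacement of tracer, read as decrease in fluorescence polarisation.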

GR [2] = target: T2, GR; assay: GR Agonist Assay - MMTV Assay (A549 MMTV cells, renilla luciferase reporter); assay type: cell-based; details: 6 h, agonists, read-out: average maximum asymptote in the MMTV agonist assay
How it was run: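 Stably transfected A549 MMTV cells carry a GR-driven luciferase reporter. Cells at 0.1×10^6/ml in DMEM with 10% FCS and 25 mM HEPES were added to wells containing compound. After detection reagent, plates were held about 15 mins at room temperature and luminescence was read.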

[3] = at least once in the NFkB assay, A549 SPAP cells, read-out: pIC50 in the NFkB assay (converted)
[4] = at least once, examples listed as agonists in NFkB and MMTV assays, read-out: potency pIC50 in the NFKB assay (converted)

EC50 (Progesterone Receptor) [nM] | Emax (GR [1]; A549 SPAP cells) [%] | IC50 (GR [1]; [3]) [nM] | IC50 (GR [1]; [4]) [nM] | IC50 (glucocorticoid receptor) [nM] | Emax (GR [2]) [%] | SMILES
> 1000 | ≥ 40 | < 1000 | < 316 | < 1000 | ≥ 40 | CCN(CC(O)(CNC(=O)c1cnn(-c2ccc(F)cc2)c1N)C(F)(F)F)C(=O)c1ccccc1C(F)(F)F (racemic) [Example 9 (racemic), 5-amino-N-{2-[(ethyl{[2-(trifluoromethyl)phenyl]carbonyl}amino)methyl]-3,3,3-trifluoro-2-hydroxypropyl}-1-(4-fluorophenyl)-1H-pyrazole-4-carboxamide]
> 1000 | ≥ 40 | < 1000 | < 316 | < 1000 | ≥ 40 | CCN(CC(O)(CNC(=O)c1cnn(-c2ccc(F)cc2)c1N)C(F)(F)F)C(=O)c1ccccc1 (racemic) [Example 14 (racemic), 5-amino-N-(2-{[ethyl(phenylcar-bonyl)amino]methyl}-3,3,3-trifluoro-2-hydroxypropyl)-1-(4-fluorophenyl)-1H-pyrazole-4-carboxamide]
> 1000 | ≥ 40 | < 1000 | < 316 | < 1000 | ≥ 40 | Nc1c(C(=O)NCC(O)(CN(CCF)C(=O)c2ccccc2Cl)C(F)(F)F)cnn1-c1ccc(F)cc1 (racemic) [Example 15 (racemic), 5-amino-N-(2-{[[(2-chlorophenyl)car-bonyl](2-fluoroethyl)amino]methyl}-3,3,3-trifluoro-2-hydroxypropyl)-1-(4-fluorophenyl)-1H-pyrazole-4-carboxamide]
> 1000 | ≥ 40 | < 1000 | < 316 | < 1000 | ≥ 40 | CCN(CC(O)(CNC(=O)c1cnn(-c2ccccc2)c1N)C(F)(F)F)C(=O)c1ccccc1F (racemic) [Example 45 (racemic), 5-amino-N-[2-({ethyl[(2-fluorophenyl)car-bonyl]amino}methyl)-3,3,3-trifluoro-2-hydroxypropyl]-1-phenyl-1H-pyrazole-4-carboxamide]
> 1000 | ≥ 40 | < 1000 | < 316 | < 1000 | ≥ 40 | CCN(CC(O)(CNC(=O)c1cnn(-c2ccccc2)c1N)C(F)(F)F)C(=O)c1ccccc1Cl (racemic) [Example 46 (racemic), 5-amino-N-(2-{[[(2-chlorophenyl)car-bonyl](ethyl)amino]methyl}-3,3,3-trifluoro-2-hydroxypropyl)-1-phenyl-1H-pyrazole-4-carboxamide]
> 1000 | ≥ 40 | < 1000 | < 316 | < 1000 | ≥ 40 | Nc1c(C(=O)NCC(O)(CN(CCF)C(=O)c2ccccc2F)C(F)(F)F)cnn1-c1ccc(F)cc1 (single isomer, unassigned) [Example 2 Enantiomer 1, 5-Amino-1-(4-fluorophenyl)-N-[3,3,3-trifluoro-2-([(2-fluoroethyl)[(2-fluorophenyl)carbonyl]amino]methyl)-2-hydroxypropyl]-1H-pyrazole-4-carboxamide]
> 1000 | ≥ 40 | < 1000 | < 316 | < 1000 | ≥ 40 | CCN(CC(O)(CNC(=O)c1cnn(-c2ccc(F)cc2)c1N)C(F)(F)F)C(=O)c1cccc(F)c1F (single isomer, unassigned) [Example 5 Enantiomer 1, 5-Amino-N-(2-{[[(2,3-difluorophenyl)carbonyl](ethyl)amino]methyl}-3,3,3-trifluoro-2-hydroxypropyl)-1-(4-fluorophenyl)-1H-pyrazole-4-carboxamide]
> 1000 | ≥ 40 | < 1000 | < 316 | < 1000 | ≥ 40 | CN(CC(O)(CNC(=O)c1cnn(-c2ccc(F)cc2)c1N)C(F)(F)F)C(=O)c1ccccc1Cl (single isomer, unassigned) [Example 7 Enantiomer 1, 5-amino-N-(2-{[[(2-chlorophenyl)car-bonyl](methyl)amino]methyl}-3,3,3-trifluoro-2-hydroxypropyl)-1-(4-fluorophenyl)-1H-pyrazole-4-carboxamide]
> 1000 | ≥ 40 | < 1000 | < 316 | < 1000 | ≥ 40 | CCN(CC(O)(CNC(=O)c1cnn(-c2ccc(F)cc2)c1N)C(F)(F)F)C(=O)c1cccc2cccnc12 (single isomer, unassigned) [Example 8 Enantiomer 1, N-{2-[({[5-amino-1-(4-fluorophenyl)-1H-pyrazol-4-yl]carbonyl}amino)methyl]-3,3,3-trifluoro-2-hydroxypropyl}-N-ethyl-8-quinolinecarboxamide]
> 1000 | ≥ 40 | < 1000 | < 316 | < 1000 | ≥ 40 | CCN(CC(O)(CNC(=O)c1cnn(-c2ccc(F)cc2)c1N)C(F)(F)F)C(=O)c1ccccc1C(F)(F)F (single isomer, unassigned) [Example 9 Enantiomer 1, 5-amino-N-{2-[(ethyl{[2-(trifluoromethyl)phenyl]carbonyl}amino)methyl]-3,3,3-trifluoro-2-hydroxypropyl}-1-(4-fluorophenyl)-1H-pyrazole-4-carboxamide]
> 1000 | ≥ 40 | < 1000 | < 316 | < 1000 | ≥ 40 | CCN(CC(O)(CNC(=O)c1cnn(-c2ccccc2)c1N)C(F)(F)F)C(=O)c1ccccc1F (single isomer, unassigned) [Example 45 Enantiomer 1, 5-amino-N-[2-({ethyl[(2-fluorophenyl)car-bonyl]amino}methyl)-3,3,3-trifluoro-2-hydroxypropyl]-1-phenyl-1H-pyrazole-4-carboxamide]
